Data taken from patent US20040058310A1 (priority 2002, published 2004).
Where two headings read alike, the source gives them in different places.

How the values were obtained:
[1] = hot plate assay; cited from earlier work
opioid receptor = settings: cited from earlier work
Normal B lymphocytes = assay: total epibatidine-binding sites in B lymphocytes; settings: mean and standard error of three independent experiments
Description: (§1) The presence of nAChRs in B lymphocytes was further confirmed by studying the [^3H]-epibatidine and [^125I]-α-bungarotoxin binding. Epibatidine is a potent agonist of heteromeric nAChRs, while -α-bungarotoxin (α-Bgt) binds to both muscle-type nAChRs and homomeric neuronal-type of nAChRs. In addition, epibatidine penetrates inside the cell and binds both surface and intracellular receptors, while α-Bgt, when tested at ice-cold temperature, binds only surface-expressed receptors. Normal B lymphocytes and […] X63-Ag8 cells contained almost equal amounts of total epibatidine-binding sites per cell (12,220±3,200 and 10,170±1,100, respectively, means and standard error of three independent experiments).

[2] = in vivo; cited from earlier work
melanoma X63-Ag8 cells = assay: total epibatidine-binding sites in X63-Ag8 cells; settings: mean and standard error of three independent experiments
Description: as §1

PMN nicotinic receptors [3] = assay: [3H]-epibatidine binding sites in PMN of smokers and non-smokers; design: species or system human
Method: (§2) FIG. 2: [^3H]-epibatidine (A) and [^125I]-α-bungarotoxin (B) binding sites in human polymorphonuclear cells isolated from smokers (n=90 and 60, respectively) and non-smokers (n=50). Binding levels were measured at 10 nM of [^3H]-epibatidine and [^125I]-α-bungarotoxin. Nonspecific binding was determined in the presence of 1 μM or 100 μM of nicotine, respectively.
(§3) Human polymorphonuclear leukocytes were isolated according to a slightly modified version of the method described by Cabanis (Cabanis, Gressier et al. 1994). Briefly, 20 ml of fresh heparinized blood were diluted with an equal amount of phosphate-buffered saline (PBS) 0.1 M, pH 7.4, and placed above 10 ml of Histopaque-1077. After centrifugation at 400 g for 30 min, the pellet was resuspended in 40 ml of cold isotonic ammonium chloride solution (NH4Cl 0.15 M, NaHCO3 10 mM). Following 20 min at 4° C., the cell suspension was centrifuged at 160 g for 10 minutes, and the white pellets were washed twice in 10 ml of Hank's buffer. The protein content was measured using the method developed by Lowry et al. (Lowry et al. 1951).
(§4) Binding assays were performed on intact purified PMN. Cellular protein (100 μg) was incubated with 10 nM [^3H]-epibatidine for 30 min. or with [^125I]-α-bungarotoxin for 60 min at 25° C. in a volume of 100 μl. Specific binding was defined as the difference between total binding and binding in the presence of 1 μM or 100 μM nicotine, performed in triplicate.
Nicotinic receptor binding sites in PMN were investigated from 90 smokers and 50 non-smokers. Participating smokers were recruited from the Centre de Tabacologie, Hôpital A. Chenevier, Créteil.

[4] = molecular target: nicotinic acetylcholine receptors; settings: cited from earlier work
PMN nicotinic receptors [5] = assay: saturation of specific [3H]-epibatidine binding to smokers' polymorphonuclear leukocytes; design: species or system human
Method: Insets, Scatchard analyses of specific binding of [^3H]-epibatidine and [^125I]-α-bungarotoxin (1 pM to 10 nM). Nonspecific binding was determined in the presence of 1 μM or 100 μM of nicotine respectively. Data are the mean± standard error of three experiments.
as §3, §4
Saturation studies were conducted with increasing concentrations of [^3H]-epibatidine (1 pM-10 nM) and [^125I]-α-bungarotoxin (1 pM-10 nM). Specific binding was defined as the difference between total binding and binding in the presence of 1 μM or 100 μM nicotine, respectively, performed in triplicate. Following the binding reactions, bound and free ligands were separated by rapid vacuum filtration through Whatman GF/B fiberglass filters (Polylabo) treated with ice-cold buffer (KH2PO4 5 mM, Na2HPO4 20 mM, NaCl 100 mM, pH 7.4) containing 0.1% milk. The filters were rinsed three times with 5 ml of the same ice-cold buffer and placed in vials with 4 ml of Picofluor 30 scintillation liquid (Packard Instrument). The radioactivity was determined by liquid scintillation counting.
Binding experiments were investigated in smokers' polymorphonuclear leukocyte cells in presence of various concentrations of [^3H]-epibatidine ranging from 0.1 nM to 25 nM.
For each experiment, the mean values of RCR or percentages were compared in a one-way analysis of variance and a Dunneft test. EC50 was calculated by non-linear regression fit of effect-concentration (C) curve to the equation: E=(Emax×C)/(C+EC50), where Emax and EC50 are the maximal efficiency and the concentration producing 50% effect respectively, using commercially available software (Micropharm®) (Urien 1995). Data from binding experiments were analysed by means of non-linear regression with commercially available software (Micropharm®) (Urien 1995).

[6] = system: human polymorphonuclear cells
[7] = system: human polymorphonuclear cells; remark: listed apart in the source
PMN nicotinic receptors [8] = assay: saturation of specific [125I]-α-bungarotoxin binding to smokers' polymorphonuclear leukocytes; design: species or system human
Method: FIG. 1: Saturation of specific [^3H]-epibatidine (A) and [^125I]-α-bungarotoxin (B) binding to human polymorphonuclear cells. Insets, Scatchard analyses of specific binding of [^3H]-epibatidine and [^125I]-α-bungarotoxin (1 pM to 10 nM). […] Data are the mean± standard error of three experiments.
Saturation studies were conducted with increasing concentrations of [^3H]-epibatidine (1 pM-10 nM) and [^125I]-α-bungarotoxin (1 pM-10 nM). […] Following the binding reactions, bound and free ligands were separated by rapid vacuum filtration through Whatman GF/B fiberglass filters (Polylabo) treated with ice-cold buffer (KH2PO4 5 mM, Na2HPO4 20 mM, NaCl 100 mM, pH 7.4) containing 0.1% milk. The filters were rinsed three times with 5 ml of the same ice-cold buffer and placed in vials with 4 ml of Picofluor 30 scintillation liquid (Packard Instrument). The radioactivity was determined by liquid scintillation counting.
Smokers' polymorphonuclear leukocytes (n=3) were used to investigate saturation experiments.

PMN nicotinic receptors [9] = assay: [125I]-α-bungarotoxin binding sites in PMN of smokers and non-smokers; design: species or system human
Method: as §2, §3
Binding assays were performed on intact purified PMN. Cellular protein (100 μg) was incubated with 10 nM [^3H]-epibatidine for 30 min. or with [^125I]-α-bungarotoxin for 60 min at 25° C. in a volume of 100 μl. […]

Method for α3, α4 and β2 subunits: Total RNA was isolated from smokers and non-smokers (TRIZOL, Gibco). First strand cDNA synthesis reactions were performed after annealing 5 μg of total RNA with 100 ng random hexamers (70° C. for 10 minutes) by incubation at 42° C. for 50 minutes. Polymerase chain reactions were carried out in a 20 μl reaction volume containing 1 μl cDNA product, 250 ng of both forward and reverse primers (Table 1), 5 units of Taq polymerase then cycled 30 times at 95° C. for 1 minute, 55° C. for 1 minute and 72° C. for 2 minutes. The amplified DNA products were analysed by agarose gel electrophoresis and stained with ethidium bromide. The PCR products were transferred from the gel to Hybond-N^+ membranes (Amersham) and hybridised with a ^32P-end-labelled oligoprobe (Table 1). Southern blot hybridizations were performed overnight at 42° C. in hybridisation buffer (5×SSC, 1× Denhardt's, 20 mM sodium phosphate buffer pH 6.5, 0.1% SDS, 100 μg/ml tRNA). The Southern blots were washed for 1 hour at room temperature in 2×SSC and 1% SDS, then exposed to X-ray film (Kodak Biomax) overnight with an intensifying screen.

**Q.** With Clc1ccc(C2CC3CCC2N3)cn1 (stereo not drawn) [epibatidine, exo-2(6-chloro-3-pyridyl)-7-azabicyclo[2.2.1]-heptane] as the compound, how does the “analgesic effect compared with morphine” value [1] read?
**A.** The value was “approximately 200 times higher than morphine”.

**Q.** What about the “affinity for the opioid receptor” value (opioid receptor) of the same compound?
**A.** The value was 1/8000.

**Q.** What about the “total epibatidine-binding sites per cell” value (Normal B lymphocytes) of the same compound?
**A.** Its value is 12,220±3,200 sites per cell.

**Q.** What about the “eliciting the Straub-tail response compared with morphine” value [2] of the same compound?
**A.** Its value is “approximately 500 fold that of morphine”.

**Q.** What about the “total epibatidine-binding sites per cell” value (melanoma X63-Ag8 cells) of the same compound?
**A.** Its value is 10,170±1,100 sites per cell.

**Q.** What about the “binding sites in non-smokers' PMN” value (PMN nicotinic receptors [3]; 50 non-smokers, listed as [^3H]-epibatidine) of the same compound?
**A.** Its value is “not present and None”.

**Q.** What about the “smokers with detected binding sites” value (PMN nicotinic receptors [3]; 90 smokers) of the same compound?
**A.** Its value is 82%.

**Q.** What about the “total number of binding sites in smokers” value (PMN nicotinic receptors [3]; PMN of smokers, 10 nM radioligand) of the same compound?
**A.** Its value is 40.65±4.89 fmol/mg protein.

**Q.** What about the Ki ([4]; nAChR, restated in pM) of the same compound?
**A.** Its Ki is roughly 55 pM.

**Q.** What about the Ki ([4]; nAChR) of the same compound?
**A.** Its Ki is 43 to 55 pM.

**Q.** And the Hill coefficient (PMN nicotinic receptors [5]; biphasic Scatchard plot)?
**A.** Its Hill coefficient is 0.76.

**Q.** What about the “Bmax1, high affinity site” value (PMN nicotinic receptors [5]; first site) of the same compound?
**A.** Its value is 46.97±5.64 fmol/mg protein.

**Q.** And the “share of the total binding sites, high affinity site” value (PMN nicotinic receptors [5]; first site)?
**A.** The value was 86.86%.

**Q.** What about the Kd (PMN nicotinic receptors [5]; first site, read-out: Kd2, high affinity site) of the same compound?
**A.** The Kd was 2.11 ± 0.43 nM.

**Q.** And the “Bmax1, very high affinity site” value (PMN nicotinic receptors [5]; second site)?
**A.** Its value is 7.73±0.64 fmol/mg protein.

**Q.** What about the “share of the total binding sites, very high affinity site” value (PMN nicotinic receptors [5]; second site) of the same compound?
**A.** The value was 14.14%.

**Q.** What about the Kd (PMN nicotinic receptors [5]; second site, read-out: Kd1, very high affinity site) of the same compound?
**A.** Its Kd is 0.0563 ± 0.0278 nM.

**Q.** With Cc1cc([C@H]2C[C@@H]3CC[C@H]2N3)on1 [epiboxidine] as the compound, how does the Ki ([4]; nAChR) read?
**A.** Its Ki is 600 pM.

**Q.** For CNC1(C)C2CCC(C2)C1(C)C (stereo not shown) [mecamylamine], which “blockade of epibatidine binding to nicotinic acetylcholine receptors” value ([4]; noncompetitive nicotinic antagonist) is on record?
**A.** Its value is “can be blocked”.

**Q.** Which results are given for CN1CCCC1c1cccnc1 (stereo not shown) [nicotine]?
**A.** change in the binding of [125I]-α-bungarotoxin to PMN [6]: no change; nAChR subunit expression after ex-vivo nicotine exposure (α3, α4 and β2 subunits): induced expression of α3, α4 and β2 subunits; Bmax of [3H]-epibatidine binding sites after nicotine [7]: 34.66±6.25 fmol/mg protein; formation of [3H]-epibatidine binding sites [7]: induced the formation; increase of the number of [3H]-epibatidine binding sites [7]: 2.67 fold; number of [3H]-epibatidine binding sites after nicotine [7]: 29.19±10.28 fmol/mg protein; Ki [4]: 1010 pM

**Q.** For [^125I]-α-bungarotoxin, which Bmax (PMN nicotinic receptors [8]) is on record?
**A.** The Bmax was 189.46±126.27 fmol/mg proteins.

**Q.** And the “nH (Scatchard plot linearity)” value (PMN nicotinic receptors [8])?
**A.** The value was 1.08±0.06.

**Q.** What about the Kd (PMN nicotinic receptors [8]; read-out: apparent Kd) of the same compound?
**A.** Its Kd is 2.77 ± 1.54 nM.

**Q.** What about the “PMN tested that demonstrated binding sites” value (PMN nicotinic receptors [9]) of the same compound?
**A.** The value was “Approximately 30%”.

**Q.** And the “binding sites in smokers compared with non-smokers” value (PMN nicotinic receptors [9])?
**A.** The value was “No difference”.
